Experimental data reported in patent publication US4335041A, “High sensitivity assays for angiotensin converting enzyme” (Ventrex Laboratories, Inc., priority 1980, dated 1982).
Peptide text beside a SMILES is read from it. * marks the point of attachment. Bz = O=C(c1ccccc1)*

How the values were obtained:
[1] = test system: enzyme isolated from hog lung; conditions: cited from earlier work
[2] = molecular target: T1, Guinea pig urinary ACE (Cavia porcellus, UniProt H0UWL7); test: Sulfate and chloride effects on substrate hydrolysis (Example 3); assay type: biochemical
T1 sequence (H0UWL7 33-1302): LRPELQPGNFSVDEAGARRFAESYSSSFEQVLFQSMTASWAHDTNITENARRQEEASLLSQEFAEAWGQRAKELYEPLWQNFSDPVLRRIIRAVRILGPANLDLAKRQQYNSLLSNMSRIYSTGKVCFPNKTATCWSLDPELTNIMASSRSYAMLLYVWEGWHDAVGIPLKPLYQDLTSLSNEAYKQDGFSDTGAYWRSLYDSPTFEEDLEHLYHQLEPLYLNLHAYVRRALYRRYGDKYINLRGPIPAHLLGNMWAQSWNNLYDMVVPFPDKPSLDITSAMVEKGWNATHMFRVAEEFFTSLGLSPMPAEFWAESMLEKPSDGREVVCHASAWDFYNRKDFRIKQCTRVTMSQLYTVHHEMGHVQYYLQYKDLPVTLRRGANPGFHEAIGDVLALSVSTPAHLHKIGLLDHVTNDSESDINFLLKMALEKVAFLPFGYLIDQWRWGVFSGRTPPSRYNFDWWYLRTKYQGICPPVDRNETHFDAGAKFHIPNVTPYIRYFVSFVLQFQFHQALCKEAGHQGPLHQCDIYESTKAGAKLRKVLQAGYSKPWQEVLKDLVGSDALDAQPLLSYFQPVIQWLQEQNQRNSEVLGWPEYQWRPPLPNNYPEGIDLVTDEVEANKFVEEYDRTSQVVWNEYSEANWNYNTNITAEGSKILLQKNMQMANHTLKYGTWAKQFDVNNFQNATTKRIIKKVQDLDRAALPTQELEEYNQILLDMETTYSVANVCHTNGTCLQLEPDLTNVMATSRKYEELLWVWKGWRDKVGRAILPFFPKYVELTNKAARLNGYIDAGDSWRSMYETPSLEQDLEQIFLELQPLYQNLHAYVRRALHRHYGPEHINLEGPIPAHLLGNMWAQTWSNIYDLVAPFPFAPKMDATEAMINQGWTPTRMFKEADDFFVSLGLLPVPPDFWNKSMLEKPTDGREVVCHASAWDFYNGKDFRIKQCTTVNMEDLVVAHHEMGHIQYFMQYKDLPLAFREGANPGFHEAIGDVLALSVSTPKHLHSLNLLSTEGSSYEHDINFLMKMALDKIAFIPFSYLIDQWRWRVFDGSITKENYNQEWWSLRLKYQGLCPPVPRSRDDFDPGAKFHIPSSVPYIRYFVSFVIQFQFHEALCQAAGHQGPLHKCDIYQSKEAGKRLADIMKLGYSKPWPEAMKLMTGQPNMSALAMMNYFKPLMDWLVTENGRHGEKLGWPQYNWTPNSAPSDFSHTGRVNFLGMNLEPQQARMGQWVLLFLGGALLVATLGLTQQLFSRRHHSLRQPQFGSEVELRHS
Procedure: ^3 H-HipHisLeu prepared as described in Example 2 and ^3 H-benzoylPheAlaPro, prepared as described in Example 5, were used as substrates for Guinea pig urinary ACE, prepared as described in Example 1. […] All incubations were carried out at 37° C. for 10 minutes. Enzyme was diluted in the reaction buffer to provide not more than 15% hydrolysis during the 10 minute incubation. Enzyme, 50 μl, was mixed with 50 μl ^3 H-HipHisLeu, 0.2 mM, having 150,000 total counts pr minute (cpm), or with ^3 H-benzoylPheAlaPro having 10,000 cpm to 200,000 cpm. Reactions were carried out in the presence of 0.1 M NaCl or in the absence of NaCl, with varying amounts of Na2 SO4 added.

[3] = molecular target: T2, Guinea pig serum ACE (Cavia porcellus, UniProt H0UWL7); test: Kinetics of sulfate-stimulated HipHisLeu hydrolysis (Example 4); assay type: biochemical
T2 sequence (H0UWL7 33-1234): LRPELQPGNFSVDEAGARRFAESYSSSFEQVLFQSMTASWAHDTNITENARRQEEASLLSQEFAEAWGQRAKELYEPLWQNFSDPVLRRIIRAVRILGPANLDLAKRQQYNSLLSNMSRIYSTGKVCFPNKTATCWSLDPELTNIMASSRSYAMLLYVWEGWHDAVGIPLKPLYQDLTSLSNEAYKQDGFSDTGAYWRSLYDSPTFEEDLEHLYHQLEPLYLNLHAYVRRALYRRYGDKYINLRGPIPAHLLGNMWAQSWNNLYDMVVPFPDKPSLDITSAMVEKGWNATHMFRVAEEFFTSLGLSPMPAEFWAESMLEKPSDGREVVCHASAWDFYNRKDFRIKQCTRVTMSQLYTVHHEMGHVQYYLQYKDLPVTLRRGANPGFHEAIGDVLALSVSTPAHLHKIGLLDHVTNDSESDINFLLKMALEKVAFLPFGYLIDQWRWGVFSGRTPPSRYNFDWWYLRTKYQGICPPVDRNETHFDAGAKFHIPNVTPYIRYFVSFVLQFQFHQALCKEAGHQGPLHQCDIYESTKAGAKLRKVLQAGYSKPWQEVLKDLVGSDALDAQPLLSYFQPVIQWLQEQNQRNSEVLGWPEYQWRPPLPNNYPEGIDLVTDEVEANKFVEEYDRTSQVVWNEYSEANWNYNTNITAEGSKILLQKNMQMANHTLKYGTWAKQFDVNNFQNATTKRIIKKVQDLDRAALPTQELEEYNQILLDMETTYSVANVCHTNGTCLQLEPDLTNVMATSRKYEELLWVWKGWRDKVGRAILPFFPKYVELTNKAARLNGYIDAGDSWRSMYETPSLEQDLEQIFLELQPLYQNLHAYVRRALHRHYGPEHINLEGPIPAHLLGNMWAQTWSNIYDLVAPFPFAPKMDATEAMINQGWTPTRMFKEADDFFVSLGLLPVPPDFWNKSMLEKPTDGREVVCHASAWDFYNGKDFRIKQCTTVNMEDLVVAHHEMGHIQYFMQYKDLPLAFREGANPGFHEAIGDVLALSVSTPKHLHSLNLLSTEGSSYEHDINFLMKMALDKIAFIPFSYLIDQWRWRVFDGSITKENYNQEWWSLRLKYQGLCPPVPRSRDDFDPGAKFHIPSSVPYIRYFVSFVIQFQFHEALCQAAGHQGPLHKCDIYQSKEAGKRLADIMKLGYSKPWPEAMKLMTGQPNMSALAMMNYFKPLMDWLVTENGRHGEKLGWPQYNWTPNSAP
Procedure: In each assay, 50 μl of Guinea pig serum diluted 1-20 (v/v) in the reaction buffer was mixed with 50 μl of buffer containing sufficient ^3 H-HipHisLeu to provide approximately 100,000 cpm total, together with sufficient unlabeled HipHisLeu to produce the desired substrate concentrations, as indicated in Table 2. […] The reaction mixture was then extracted with 1 ml ethyl acetate. 500 μl of the ethyl acetate fraction was sampled and counted in a scintillation counter.

[4] = test system: ACE from rabbit lung; conditions: sodium chloride removed; cited from earlier work
[5] = Solvent extraction from acidified reaction mixture; assay type: physicochemical
Description: While a variety of organic solvents may be suitable for the extraction step, it is preferred to employ toluene.

[6] = test system: ACE; test: Response of 3H-benzoylPheAlaPro hydrolysis to added NaCl; assay type: biochemical; conditions: 0.05 M added sodium chloride, 0.05 M Hepes pH 8.0
Procedure: An even more sensitive assay for ACE activity has been developed using the novel compound ^3 H-benzoylPheAlaPro as substrate. This new substrate can be used to assay ACE in human urine in incubations as short as 15 minutes. The response of this substrate to ions is strikingly different from the response of HipHisLeu. […] This difficulty has been solved by the proper choice of extracting solvent. While a variety of organic solvents may be suitable for the extraction step, it is preferred to employ toluene. Approximately 88% of ^3 H-benzoylPhe enters the toluene phase while only 6% of the unhydrolyzed substrate enters the toluene phase, when toluene and the acidified reaction mixture are in approximately equal volumes at room temperature.

[7] = sulfate 0.6 M, 0.1 M chloride, pH 8

Q: Which “hydrolysis in the absence of NaCl” value ([1]; no NaCl, Na2SO4 0.001 M to 0.6 M) does the source give for `O=C(O)CNC(=O)CNC(=O)CNC(=O)c1ccccc1` [HipGlyGly] (Bz-Gly-Gly-Gly-OH) here?
A: no hydrolysis

Q: And the “decrease of Km by sulfate” value [1, 7]?
A: about 15%

Q: What about the “increase of Vmax by sulfate” value [1, 7] of the same compound?
A: about 5 fold

Q: With `CC(C)C[C@H](NC(=O)[C@H](Cc1c[nH]cn1)NC(=O)CNC(=O)c1ccccc1)C(=O)O` [HipHisLeu] (Bz-Gly-His-Leu-OH) as the compound, how does the “Reaction Velocity - Percent of Substrate Hydrolyzed in 10 minutes” value (“Reaction Velocity - Percent” for short) ([2]; 0.05M Hepes pH 8.0, 0.0M NaCl, Na2SO4 0) read?
A: 0%

Q: What about the “Reaction Velocity - Percent” value ([2]; 0.05M Hepes pH 8.0, 0.0M NaCl, Na2SO4 0.1) of the same compound?
A: 0%

Q: What about the “Reaction Velocity - Percent” value ([2]; 0.05M Hepes pH 8.0, 0.0M NaCl, Na2SO4 0.2) of the same compound?
A: 0%

Q: What about the “Reaction Velocity - Percent” value ([2]; 0.05M Hepes pH 8.0, 0.0M NaCl, Na2SO4 0.3) of the same compound?
A: 0%

Q: What about the “Reaction Velocity - Percent” value ([2]; 0.05M Hepes pH 8.0, 0.0M NaCl, Na2SO4 0.4) of the same compound?
A: 0.1%

Q: What about the “Reaction Velocity - Percent” value ([2]; 0.05M Hepes pH 8.0, 0.0M NaCl, Na2SO4 0.5) of the same compound?
A: 0.1%

Q: And the “Reaction Velocity - Percent” value ([2]; 0.05M Hepes pH 8.0, 0.0M NaCl, Na2SO4 0.6)?
A: 0.25%

Q: What about the “Reaction Velocity - Percent” value ([2]; 0.05M Hepes pH 8.0, 0.0M NaCl, Na2SO4 0.7) of the same compound?
A: 0.25%

Q: What about the “Reaction Velocity - Percent” value ([2]; 0.05M Hepes pH 8.0, 0.0M NaCl, Na2SO4 0.75) of the same compound?
A: 0.25%

Q: What about the “Reaction Velocity - Percent” value ([2]; 0.05M Hepes pH 8.0, 0.0M NaCl, Na2SO4 0.8) of the same compound?
A: 0.25%

Q: And the “Reaction Velocity - Percent” value ([2]; 0.05M Hepes pH 8.0, 0.0M NaCl, Na2SO4 0.9)?
A: 0.7%

Q: What about the “Reaction Velocity - Percent” value ([2]; 0.05M Hepes pH 8.0, 0.0M NaCl, Na2SO4 1.2) of the same compound?
A: 3.9%

Q: And the “Reaction Velocity - Percent” value ([2]; 0.05M Hepes pH 8.0, 0.1M NaCl, Na2SO4 0)?
A: 0.3%

Q: What about the “Reaction Velocity - Percent” value ([2]; 0.05M Hepes pH 8.0, 0.1M NaCl, Na2SO4 0.4) of the same compound?
A: 4.1%

Q: And the “Reaction Velocity - Percent” value ([2]; 0.05M Hepes pH 8.0, 0.1M NaCl, Na2SO4 0.6)?
A: 8.3%

Q: And the “reduction of Km by sulfate” value ([3]; 0.75 M Na2SO4 in reaction mixture containing 0.1 M NaCl)?
A: about 15 fold

Q: And the “decrease in Km by sulfate” value ([3]; sulfate ion 0.75-1.1 M)?
A: 14 fold

Q: What about the “inhibition on removal of sodium chloride from the reaction medium” value [4] of the same compound?
A: 92%

Q: Which “Reaction Velocity - Percent” value ([2]; 0.05 Hepes pH 8.0, 0.1 M NaCl, Na2SO4 0) does the source give for `C[C@H](NC(=O)[C@H](Cc1ccccc1)NC(=O)c1ccccc1)C(=O)N1CCC[C@H]1C(=O)O` [benzoylPheAlaPro, benzoyl-Phe-Ala-Pro] (Bz-Phe-Ala-Pro-OH) here?
A: 4.4%

Q: What about the “Reaction Velocity - Percent” value ([2]; 0.05 Hepes pH 8.0, 0.1 M NaCl, Na2SO4 0.1) of the same compound?
A: 5.0%

Q: And the “Reaction Velocity - Percent” value ([2]; 0.05 Hepes pH 8.0, 0.1 M NaCl, Na2SO4 0.5)?
A: 5.6%

Q: What about the “extraction into ethyl acetate” value ([5]; reaction terminated with dilute hydrochloric acid) of the same compound?
A: extracted almost quantitatively

Q: And the “fraction entering the toluene phase” value ([5]; toluene and acidified reaction mixture in approximately equal volumes, room temperature)?
A: 6%

Q: And the “increase of apparent reaction velocity by added NaCl” value [6]?
A: approximately 3 fold
